Experimental data published in patent US20260374818A1, “CATIONIC PEPTIDES WITH BROAD SPECTRUM ACTIVITY” (priority 2023, published 2026).
≈ marks a conversion by molar mass, not a printed value. Where a SMILES comes first, the peptide text is derived from it. [ ]: non-standard residue; d: D form.

Legend:
[1] = tested on: Enterobacter cloacae 218R1; assay: Biofilm inhibition (at least 80%), E. cloacae; format: cell-based; conditions: E. cloacae 218R1; n = 3; BM2 minimal media; 18-24 hours; crystal violet
P. aeruginosa LESB58 = assay: Murine sinusitis model, P. aeruginosa; format: in vivo, mouse; Pseudomonas aeruginosa
From the text: (§1) FIGS. 15A-15I show peptides AB101-D, AB102-D and AB103-D compared to DJK5 in a murine sinusitis model of bacterial infections. MRSA USA300, nasal cavity (FIG. 15A) P. aeruginosa LESB58 (FIG. 15B and FIG. 15C, nasal cavity); MRSA USA300, lung tissue (FIG. 15D) P. aeruginosa LESB58 (FIG. 15E and FIG. 15F, lung tissue); and MRSA USA300, weight change (FIG. 15G) P. aeruginosa LESB58 (FIG. 15H and FIG. 15I, weight change).
(§2) A murine sinusitis model of bacterial infections in the nasal cavity of mice [Alford et al. (2021). Murine model of sinusitis infection for screening antimicrobial and immunomodulatory therapies. Frontiers in Cellular and Infection Microbiology., 11, 621081] was used to determine the efficacy of D-amino acid peptides AB101-D, AB102-D and AB103-D compared to DJK5. […]. Treatment was applied either as dropwise administration of a peptide solution (20 μl) to the infected naris of a mouse (FIGS. 15A, 15B, 15D, 15E, 15G, 15H) or peptide was delivered using a Respimat® inhaler device (FIGS. 15C, 15F, 15I). Mice were monitored and weighed once daily for up to three days then euthanized prior to collection of nasal lavage fluid and lung tissue for bacterial enumeration. The limit of detection is shown by the dotted line at log CFU=2. […] Accordingly, the results indicated enhanced efficacy of D-amino acid peptides AB101-D, AB102-D and AB103-D compared to DJK5 in this murine model.

[2] = Subdermal murine toxicity model; conditions: for Clinical score: 1 hour after subcutaneous administration, comparator DJK-5
How it was run: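 Peptides given subdermally to shaved, depilated, isoflurane-anaesthetised female CD-1 mice (8 weeks, 25±5 g) at 4 mg/kg. Summed clinical scores taken at 1 h; cyst or lesion presence and caliper size recorded at 16 h. Values are the mean of two independent replicates.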

[3] = tested on: A. baumanii biofilms on Ker-CT epidermal skin; assay: Skin organoid biofilm model, AB103-D loaded Medvance foam dressing, A. baumanii; format: cell-based, Acinetobacter baumannii
MRSA USA 300 = assay: MIC (broth microdilution) of peptides, MRSA; format: cell-based, methicillin resistant Staphylococcus aureus; conditions: MRSA USA300; mode of three biological replicates
Description: Minimal inhibitory concentration (MIC) against planktonic bacteria: The MIC of the synthetic peptides was determined in Mueller-Hinton broth (MHB) using the broth microdilution method described previously [Wiegand, I., Hilpert, K., & Hancock, R. E. (2008). Agar and broth dilution methods to determine the minimal inhibitory concentration (MIC) of antimicrobial substances. Nature Protocols, 3(2), 163-175]. Briefly, 10 μl of a 10× concentrated peptide solution was placed in the bottom of a well in a 96-well polypropylene round bottom plate (Corning Inc.). A bacterial suspension of ~5×10^5 CFU/ml was prepared from an overnight culture and 90 μl of this was added to each well. […] Bacteria tested included P. aeruginosa PAO1, MRSA USA300 LAC, Staphylococcus haemolyticus, Staphylococcus epidermidis, Klebsiella pneumoniae and Streptococcus salivarius.
Finally, the AB103-D derivatives that were the least aggregation prone and which produced the lowest toxic effects in vivo were evaluated for their direct antibacterial activity towards several pathogens of clinical relevance using a standard minimum inhibitory concentration (MIC) assay [Wiegand, I., Hilpert, K., & Hancock, R. E. (2008). Agar and broth dilution methods to determine the minimal inhibitory concentration (MIC) of antimicrobial substances. Nature Protocols, 3(2), 163-175]. Specifically, peptides AB110-D, AB111-D, AB114-D and AB115-D were tested against P. aeruginosa PAO1, MRSA USA 300, Staphylococcus haemolyticus, Staphylococcus epidermidis, Klebsiella pneumoniae and Streptococcus salivarius and compared against the antibacterial activity of DJK-5 and AB103-D (Table 7). Overall, the antibacterial potency of all of the AB103-D derivatives was stronger than that seen for DJK-5, particularly in the case of the Gram-negative pathogens P. aeruginosa and K. pneumoniae. […]

[4] = tested on: Klebsiella pneumonia KPLN649; assay: Biofilm inhibition (at least 80%), K. pneumonia; format: cell-based; conditions: K. pneumoniae KPLN649; n = 3; BM2 minimal media; 48 hours; crystal violet
[5] = tested on: PAO1 biofilms on human skin organoid; assay: Skin organoid biofilm infection model, peptide solution, PAO1; format: cell-based, Pseudomonas aeruginosa; conditions: peptide solution 4 hrs (FIG. 3B)
[6] = tested on: 3-day-old oral plaque (multispecies) biofilms; assay: Oral plaque biofilm model, long-term (1-3 days) exposure, dead cell volume; format: cell-based
MRSA USA300 = assay: Murine sinusitis model, MRSA; format: in vivo, mouse; methicillin resistant Staphylococcus aureus
From the text: as §1, §2

Structure (SMILES) | Peptide/Antibiotic Concentration where at least 80% of biofilm growth was inhibited [1] [µg/mL] | Bacteria in nasal cavity and lungs (P. aeruginosa LESB58; P. aeruginosa LESB58, 0.1 mg dose, compared to DJK5) | Clinical score [2] | Average cyst size compared to DJK-5 ([2]; 16 hours after administration, 4 mg/kg) | Bacterial burden on organoid skin, loaded bandage [3] | MIC (MRSA USA 300) [µg/mL] | Peptide/Antibiotic Concentration where at least 80% of biofilm growth was inhibited [4] [µg/mL] | Antibiofilm activity on skin organoid [5] | Proportion of dead biofilm cells ([6]; 10 μg/ml, daily for 3 days, compared to DJK5 (FIG. 16A)) | Proportion of dead biofilm cells ([6]; 1 or 5 μg/ml, daily for 3 days, compared to DJK5 (FIG. 16A)) | Proportion of dead biofilm cells ([6]; all three concentrations, one day (FIG. 16C)) | Proportion of dead biofilm cells ([6]; all three concentrations, two days (FIG. 16B)) | Bacteria in nasal cavity and lungs (MRSA USA300; MRSA USA300, 0.1 mg dose, compared to DJK5) | Weight loss (P. aeruginosa LESB58; P. aeruginosa LESB58 infected mice) | Weight loss (MRSA USA300; MRSA USA300 infected mice)
CC[C@@H](C)[C@@H](NC(=O)[C@@H](C)NC(=O)[C@@H](CCCNC(=N)N)NC(=O)[C@@H](Cc1c[nH]c2ccccc12)NC(=O)[C@@H](CCC(N)=O)NC(=O)[C@H](NC(=O)[C@@H](CCCNC(=N)N)NC(=O)[C@H](NC(=O)[C@H](NC(=O)[C@@H](CCCNC(=N)N)NC(=O)[C@H](NC(=O)[C@H](N)CCCNC(=N)N)C(C)C)C(C)C)[C@H](C)CC)C(C)C)C(N)=O [AB103-D, rvrvirvqwrai-NH2] (H-[dR][dV][dR][dV][dI][dR][dV][dQ][dW][dR][dA][dI]-NH2) | 1 | reduced the amount of bacteria in the nasal cavity and lungs of mice much more than DJK5 treatment | < 2 | smaller than those induced by DJK-5 | effectively reduce the bacterial burden | 0.8 (≈ 0.516 µM) | 2 | excellent antibiofilm activity | superior to DJK5 at killing bacteria cells | killed more of the biofilm cells | killed more biofilm cells than DJK5 | killed more biofilm cells than DJK5 | reduced the amount of bacteria in the nasal cavity and lungs of mice much more than DJK5 treatment | – | –
CC[C@@H](C)[C@@H](NC(=O)[C@@H](C)NC(=O)[C@@H](CCCNC(=N)N)NC(=O)[C@@H](Cc1c[nH]c2ccccc12)NC(=O)[C@@H](CCC(N)=O)NC(=O)[C@H](N)C(C)C)C(=O)N[C@H](CCCNC(=N)N)C(=O)N[C@@H](C(=O)N[C@H](CCCNC(=N)N)C(=O)N[C@@H](C(=O)N[C@@H](C(=O)N[C@H](CCCNC(=N)N)C(N)=O)[C@H](C)CC)C(C)C)C(C)C [DJK5, vqwrairvrvir-NH2] (H-[dV][dQ][dW][dR][dA][dI][dR][dV][dR][dV][dI][dR]-NH2) | 2 | – | 2 | – | – | 0.8 (≈ 0.516 µM) | 8 | – | – | – | – | – | – | did not prevent weight loss | did not prevent weight loss
